# In publication PMC12346692, “SUL-150 Limits Vascular Remodeling and Ventricular Failure in Pulmonary Arterial Hypertension” (International Journal of Molecular Sciences, 2025):
# “And” between values parts separate entries of the source, which are not always exact repeats. Equal values may be shown once. Read-outs that look alike come from different tables or passages of the source. Marks after values point to notes of the source that are not given here.
# Tests used:
# Assay type in all cases: in vivo, rat
# [1] = system: PAH rats; assay: In-life data (body weight, discomfort, mortality) during chronic SUL-150 administration; settings: ~6 mg·kg^−1·day^−1 i.p. minipump, 28 days
# Method: (§1) The administration of vehicle and SUL-150 started 7 days post-monocrotaline injection and was performed by the i.p. implantation of osmotic minipumps (Alzet model #2004, Durect Corp., Cupertino, CA, USA) at the time of aortocaval shunt placement. The Lynch coil method was used to circumvent compatibility issues with the osmotic minipump reservoir as described previously. Vehicle (dimethyl sulfoxide (DMSO) or SUL-150 ((R)-(6-hydroxy-2,5,7,8-tetramethylchroman-2-yl)(piperazin-1-yl)methanone, 0.9 M in DMSO, Sulfateq BV, Groningen, The Netherlands) was administered at a flow rate of 0.25 µL·h^−1, accumulating to an approximate dose of 6 mg·kg^−1·day^−1 SUL-150 in a 300 g rat. Animals were weighed, watched for dyspnea, cyanosis, and oedema, and sacrificed preterm when a 15% weight loss or debilitating dyspnea occurred.
# Three rats died during the study without a clear cause at necropsy and were excluded (sham control (n = 1) and vehicle-treated (n = 2) rats). At sacrifice, 7 rats were excluded from the study because of procedural motives: in two rats (vehicle (n = 1) and SUL-150-treated (n = 1) rats), adequate AC shunt could not be confirmed. In two other rats (both SUL-150-treated rats), the osmotic pumps were blocked by adipose deposits, limiting their function. Three rats died during cardiac function assessment (sham control (n = 2) and SUL-150 treated (n = 1) rats). Twenty rats were included in the study (sham control (n = 7), vehicle-treated (n = 7), and SUL-150-treated (n = 6) rats.
# [2] = SUL-150 levels in plasma, lung and right ventricle (LC-MS/MS); settings: for concentration at 4 weeks / concentration at 28 days: rat
# Method: as §1
# Measurement of SUL-150 levels in plasma and tissue homogenates was performed by liquid chromatography and mass spectrometry. Plasma or tissue homogenates were supplemented with acetonitrile and sonicated, followed by centrifugation at 14,000× g to liberate SUL-150 from the samples and pellet protein precipitates. Tissue samples were subjected to additional solid-phase extraction using an SPEStrata C-18 cartridge (100 mg, 55 µm, 70 Å, Phenomenex, Torrance, CA, USA), prepared with 1 mL methanol followed by 1 mL water. Analytes were washed by methanol (10%) and eluted in acetonitrile/methanol (3:7 v/v). Eluate was concentrated, and water (20%) was added. Analyte recovery was >95% for plasma samples and >70% for tissue. Liquid chromatography of the samples was performed on a 1260 Infinity HPLC device (Agilent Tech., Santa Clara, CA, USA) using a ZORBAX Eclipse AAA column (3.0 × 150 mm, particle size 3.5 µm) in a reversed-phase setup and a flow rate of 0.5 mL·min^−1 with gradient elution. Solvents consisted of methanol (6%)/acetonitrile (4%) acetate and methanol (54%)/acetonitrile (36%) in water with 0.1% ammonium for solvents A and B, respectively. MS/MS detection was performed on a QQQ 6460 mass spectrometer (Agilent Tech., Santa Clara, CA, USA). Detection was set for a quantifier ion (205.1, CE 25 V) and qualifier ion (190.1, CE 40 V). Gas temperature for MS was set to 300 °C and gas flow was set to 6 L·min^−1. Quantification of the samples was performed using an external standard for calibration. LOD and LOQ were 5 pg·mL^−1 and 17 pg·mL^−1, respectively.
# [3] = system: PAH rats; assay: Echocardiogram and hemodynamic measurements in monocrotaline + aortocaval shunt PAH rats; parameters: LVOT VTI / PV Acceleration slope: unit not given here
# Method: Animal care and experiments were approved by the Institutional Animal Care and Use Committee (CCD # AVD105002015129) and in accordance with the ARRIVE guidelines. Forty (40) male Wistar rats (Harlan, 7–9 weeks old, weighing 276 ± 15 g) were used. PAH was induced by a single i.p. injection of monocrotaline (60 mg·kg^−1) and the placement of an aortocaval shunt one week later as described previously.
# as §1
# Echocardiographic (ECG) examination was performed under isoflurane anesthesia (5% in air during induction, 2% in air during maintenance) via inhalation prior to euthanisation using a Vivid Dimension 7 system and 10S-transducer (GE Healthcare, Waukesha, WI, USA). Ventricular dimensions, eccentricity index, and flow profiles over the aortic, pulmonary, and tricuspid valves were measured in standard views. Cardiac output (mL·min^−1) was calculated using the following equation: CO(mL·min^−1)=(LVOTarea×LVOTVTI)×HR , wherein LVOT area is the area of the left ventricular outflow tract, LVOT VTI is the velocity-time integral and HR is heart rate. Subsequent to ECG, invasive hemodynamic measurements were performed using a closed chest technique as described by others. A fluid-filled pressure catheter was inserted into the right internal jugular vein and guided to the pulmonary artery under pressure waveform monitoring using a bedside monitor. Right ventricular systolic and diastolic pressure, pulmonary arterial pressures, and pulmonary wedge pressure were measured. Mean pulmonary arterial pressure (mmHg) was calculated as: mPAP(mmHg)=(2/3dPAP+1/3sPAP) , wherein dPAP and sPAP are diastolic and systolic pulmonary artery pressure, respectively. Total pulmonary vascular resistance was estimated as: PVRmmHg·mL·min^−1=(mPAP−PCWP)/CO , wherein mPAP, mPWP, and CO are mean pulmonary artery pressure, pulmonary capillary wedge pressure, and cardiac output, respectively.
# [4] = individual PAH rats at sacrifice, ~6 mg·kg^−1·day^−1 i.p. minipump
# [5] = plasma, ip, 6 mg·kg^−1·day^−1, mean of PAH rats at sacrifice, ~6 mg·kg^−1·day^−1 i.p. minipump, read-out: mean concentration of SUL-150 in blood plasma
# [6] = PAH rats, ~6 mg·kg^−1·day^−1 i.p. minipump, 28 days
# [7] = PAH rats, ~6 mg·kg^−1·day^−1 i.p. minipump, 28 days, echocardiography
# [8] = PAH rats, ~6 mg·kg^−1·day^−1 i.p. minipump, 28 days, result in words
# [9] = SUL-150-treated versus vehicle-treated PAH rats
smiles,measurement,setting,value
"Cc1c(C)c2c(c(C)c1O)CC[C@](C)(C(=O)N1CCNCC1)O2 [SUL-150, (R)-(6-hydroxy-2,5,7,8-tetramethylchroman-2-yl)(piperazin-1-yl)methanone]",Dyspnea frequency,[1],33.3 % of rats
same,Edema frequency,[1],"0 % of rats and 0 ^a,b % of rats"
same,End weight (day 32–33),[1],319.3 ± 12.0 ^a g
same,Mortality (%),[1],"0 (0%) ^a,b"
same,number of rats with dyspnea,[1],2 n
same,survival rate,[1],100%
same,"SUL-150 concentration, Lung Tissue",[2]; [4],35.56 pg/mg and 10.21 pg/mg and 14.26 pg/mg and 25.74 pg/mg and 26.09 pg/mg and 53.94 pg/mg
same,"SUL-150 concentration, Plasma",[2]; [4],93.16 ng/mL and 3.31 ng/mL and 18.36 ng/mL and 4.42 ng/mL and 18.81 ng/mL and 43.90 ng/mL
same,"SUL-150 concentration, Right Ventricle",[2]; [4],13.49 pg/mg and 29.91 pg/mg and 23.67 pg/mg and 16.80 pg/mg and 21.76 pg/mg and 143.68 pg/mg
same,concentration at 4 weeks,"[2]; lung, ip, 6 mg·kg^−1·day^−1, mean of PAH rats at sacrifice, ~6 mg·kg^−1·day^−1 i.p. minipump, read-out: mean concentration of SUL-150 in lung",27.6 ± 15.8 ng/g
same,concentration at 28 days,"[2]; plasma, intraperitoneal, 6 mg·kg^−1·day^−1, range over PAH rats at sacrifice, read-out: plasma level of SUL-150, range",0.0033 to 0.0932 µg/mL
same,concentration at 4 weeks,[2]; [5],0.0303 ± 0.0341 µg/mL
same,concentration at 28 days,[2]; [5],0.0303 µg/mL
same,concentration at 4 weeks,"[2]; right ventricle, ip, 6 mg·kg^−1·day^−1, mean of PAH rats at sacrifice, ~6 mg·kg^−1·day^−1 i.p. minipump, read-out: mean concentration of SUL-150 in right ventricle",41.5 ± 50.4 ng/g
same,"Pulmonary artery pressure, Diastolic",[3]; [6],19.0 ± 5.7 mmHg
same,"Pulmonary artery pressure, Mean (mPAP)",[3]; [6],27.7 mmHg and 27.7 ± 5.8 mmHg and 27.7 ± 5.8 ^a mmHg
same,"Pulmonary wedge pressure, Mean",[3]; [6],4.8 ± 1.9 mmHg
same,"Tricuspid valve insufficiency, Average grade (0–3)",[3]; [6],"1.0 ± 1.0 ^a,b"
same,"Tricuspid valve insufficiency, Mild",[3]; [6],14.3%
same,"Tricuspid valve insufficiency, Moderate",[3]; [6],42.9%
same,"Tricuspid valve insufficiency, Severe",[3]; [6],0%
same,"Vascular resistance, Pulmonary","[3]; PAH rats, ~6 mg·kg^−1·day^−1 i.p. minipump, 28 days, (mPAP−PCWP)/CO",0.12 ± 0.05 mmHg·min·mL^−1
same,LVIDd,[3]; [7],4.27 ± 0.46 mm
same,LVOT Pmax,[3]; [7],5.57 ± 3.73 mmHg
same,LVOT VTI,[3]; [7],6.16 ± 2.33
same,LVOT Vmax,[3]; [7],1.12 ± 0.39 m·s^−1
same,LVOT diameter,[3]; [7],3.37 ± 0.24 ^b mm
same,PAAT,[3]; [7],17.07 ± 4.17 ms
same,PV Acceleration slope,[3]; [7],65.37 ± 19.75
same,PV Pmax,[3]; [7],5.74 ± 1.50 mmHg
same,PV Vmax,[3]; [7],1.14 ± 0.19 m·s^−1
same,RVIDd,[3]; [7],3.87 ± 1.37 ^b mm
same,RVIDd/LVIDd ratio,[3]; [7],0.92 ± 0.35
same,TAPSE,[3]; [7],2.90 ± 0.49 ^b mm
same,cardiac output,[3]; [8],normalized
same,heart rate,[3]; [8],normalized
same,decrease in diastolic pulmonary artery pressure compared to PAH rats,[3]; [9],25%
same,decrease in right ventricle inner diameter in diastole versus PAH rats,[3]; [9],38%
same,decrease in right ventricular pressure at diastole versus PAH rats,[3]; [9],52%
same,increase in stroke volume compared to vehicle-treated PAH rats,[3]; [9],68%
